Tests used:
nitroreductase (NTR) = target: T1, nitroreductase (NTR) (Escherichia coli, UniProt P38489); test: Nitroreductase gene reporter assay (adenoviral NF-κB NTR reporter, HeLa cells); format: cell-based; details: control sample cells containing the reporter, no agonist, vs mock transduced cells
T1 construct: expressed in transfected cells
Method: A reporter construct containing the NF-κB response element upstream of the NTR gene was constructed in pDC511 (Admax™). The reporter was packaged with AdS genomic DNA in helper cells, HEK293, and replication incompetent Adenovirus rescued.
HeLa cells were subcultured for twenty-four hours prior to viral transduction and incubated overnight at 37° C. in a humidified atmosphere of 5% CO2 in Dulbecco's Modified Eagles medium containing 10% foetal calf serum +2 mM L-glutamine. After the overnight incubation, the cells were detached from each flask with trypsin, pooled to produce a suspension of cells and the cell concentration determined. The HeLa cell suspension was mixed with virus at a predetermined multiplicity of infection (MOI) in a sufficient minimal volume of complete medium to cover the base of a tissue culture flask; typically 15 ml for 10^6 cells in a T75 cm^2 Costar flask. The cell/virus suspension was returned to the incubator and left overnight at 37° C. in a humidified atmosphere of 5% CO2. […] The cells were detached with trypsin and pooled to produce a suspension of transduced cells; the concentration of the cell suspension was determined and adjusted to 5.0×10^4 cells per ml. […] The fluorescence signal was monitored over time by means of a Tecan “Ultra” fluorimeter. All substrates were measured under identical conditions to avoid instrument artefacts. […]

nitroreductase = target: T2, nitroreductase (Escherichia coli, UniProt P38489); test: Live cell NTR assays, signal retention after fixation of cells; format: cell-based; details: live cell NTR assay, cells fixed
T2 construct: expressed in transfected cells
Source text: Further examples of the utility of nitro-substituted squaraine dyes (Compounds (2), (3) and (4)) as nitroreductase substrates are shown in live cell NTR assays, FIG. 5.

NTR enzyme = NTR enzyme (Escherichia coli, UniProt P38489); test: Shift in absorption maximum after action of NTR upon a substrate; format: biochemical
Method: Compound (8) in DMSO (1 mMol) (4 μl ) was diluted into PBS buffer (0.01M) (1.76 ml). The UV/Vis spectrum of the solution was measured. The substrate has an absorbance maximum at 682 nm AU=0.22. To the solution was added NADH (0.01M in PBS) (200 μl) and NTR enzyme (446 ng/ml, 37 μl) the mixture was leave to stand at room temperature for 30 mins. After this time, the absorbance spectrum was re-measured. A new absorbance maximum at 621 nm, AU=0.17 is observed.

Sequence of NTR enzyme (P38489 whole entry): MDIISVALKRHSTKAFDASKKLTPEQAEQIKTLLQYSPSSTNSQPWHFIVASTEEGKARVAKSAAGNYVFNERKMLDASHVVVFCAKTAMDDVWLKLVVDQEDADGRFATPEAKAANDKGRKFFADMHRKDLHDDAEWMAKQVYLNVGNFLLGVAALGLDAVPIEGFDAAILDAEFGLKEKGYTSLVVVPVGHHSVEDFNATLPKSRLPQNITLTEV
T2 sequence (P38489 whole entry): as above
T1 sequence (P38489 whole entry): as above

Structure (SMILES): CN1/C(=C\C2=C([O-])C(=C\C3=[N+](Cc4cc([N+](=O)[O-])cc([N+](=O)[O-])c4)c4ccccc4C3(C)C)/C2=O)C(C)(C)c2ccccc21 [Compound (1), 2-(1-methyl-3,3-dimethyl-2-indolinylidenemethyl)-4-(1-(3,5-dinitrobenzyl)-3,3-dimethyl-2-indolinylidenemethyl)cyclobutenediylium-1,3-diolate]
- detection of basal transcriptional activity (nitroreductase (NTR)): not sensitive enough to detect this low level activity

Structure (SMILES): CC[n+]1c(/C=C2/C(=O)C(/C=C3\N(CCOCCOC)c4ccccc4C3(C)C)=C2[O-])sc2cc([N+](=O)[O-])ccc21 [Compound (4), 2-(3-ethyl-6-nitro-2-benzothiazolinylidenemethyl)-4-(1-(2-(2-methoxyethoxy)ethyl)-3,3-dimethyl-2-indolinylidenemethyl)cyclobutenediylium-1,3-diolate]
- signal lost post-fixation (nitroreductase): ~50%

Structure (SMILES): C[n+]1c(C=C2C(=O)C(C=C3N(CCCCS(=O)(=O)O)c4ccc(S(=O)(=O)O)cc4C3(C)C)=C2[O-])ccc2cc([N+](=O)[O-])ccc21 [Compound (8), 2-((3,3-dimethyl-5-sulfo-1-(4-sulfobutyl)-1,3-dihydro-2H-indol-2-ylidene)methyl)-4-((1-methyl-6-nitroquinolinium-2-yl)methylene)-3-oxocyclobut-1-en-1-olate]
- new absorbance maximum after action of NTR (NTR enzyme; NADH and NTR enzyme added, room temperature, 30 mins): 621 nm
- absorbance at new maximum after action of NTR (NTR enzyme; at 621 nm, NADH and NTR enzyme added, room temperature, 30 mins): 0.17 AU
- absorbance maximum of substrate (NTR enzyme; before NTR, PBS buffer 0.01M): 682 nm
- absorbance at maximum of substrate (NTR enzyme; before NTR, at 682 nm, PBS buffer): 0.22 AU
